Test results: patent US20080009418A1, “Selective Inhibitors” (Alchemia LTD., priority 2004, published 2008)

Legend:
[1] = target: T1, Human κ-Opioid (KOP) (Homo sapiens, UniProt P41145); test: Radioligand binding, human κ-opioid (KOP) membranes, filtration, [3H]-Diprenorphine; conditions: compound at 10 μM; [3H]-Diprenorphine
T1 construct: purchased Perkin Elmer Biosignal
Procedure, shortened: (§1)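 Membranes from cloned human receptors were incubated with compound and radioligand for 1 hour at room temperature. Bound ligand was collected on 0.3% PEI-soaked filters, washed with cold 50 mM Tris-HCl pH 7.4, and counted by scintillation. Percent inhibition was computed against DMSO totals and reference-ligand nonspecific wells.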

[2] = target: T2, Human δ-opioid (DOP) (Homo sapiens, UniProt P41143); test: Radioligand binding, human δ-opioid (DOP) membranes, FlashPlate, [3H]-Bremazocine; conditions: compound at 10 μM; [3H]-Bremazocine
T2 construct: purchased Perkin Elmer Biosignal
T2 sequence (P41143 whole entry): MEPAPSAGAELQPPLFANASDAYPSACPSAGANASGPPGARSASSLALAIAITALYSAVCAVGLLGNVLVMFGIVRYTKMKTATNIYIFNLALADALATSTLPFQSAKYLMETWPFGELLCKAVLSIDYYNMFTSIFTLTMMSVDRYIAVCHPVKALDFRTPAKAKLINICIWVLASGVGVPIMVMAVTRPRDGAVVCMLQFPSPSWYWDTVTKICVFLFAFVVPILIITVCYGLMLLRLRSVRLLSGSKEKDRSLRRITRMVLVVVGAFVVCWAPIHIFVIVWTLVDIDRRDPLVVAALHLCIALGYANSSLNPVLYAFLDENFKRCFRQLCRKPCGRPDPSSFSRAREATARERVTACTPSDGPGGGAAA
Procedure, shortened: (§2)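 Cloned human receptor membranes were coated onto FlashPlate wells and incubated with radioligand and compound (added from a 0.5 mM DMSO daughter plate) for 1 hour at room temperature in the dark. Scintillation counting gave percent inhibition, with DMSO defining total and reference ligand defining non-specific binding.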

[3] = target: T3, Human μ-opioid (MOP) (Homo sapiens, UniProt P35372); test: Radioligand binding, human μ-opioid (MOP) membranes, FlashPlate, [3H]-Naloxone; conditions: compound at 10 μM, [3H]-Naloxone
T3 construct: purchased Perkin Elmer Biosignal
T3 sequence (P35372 whole entry): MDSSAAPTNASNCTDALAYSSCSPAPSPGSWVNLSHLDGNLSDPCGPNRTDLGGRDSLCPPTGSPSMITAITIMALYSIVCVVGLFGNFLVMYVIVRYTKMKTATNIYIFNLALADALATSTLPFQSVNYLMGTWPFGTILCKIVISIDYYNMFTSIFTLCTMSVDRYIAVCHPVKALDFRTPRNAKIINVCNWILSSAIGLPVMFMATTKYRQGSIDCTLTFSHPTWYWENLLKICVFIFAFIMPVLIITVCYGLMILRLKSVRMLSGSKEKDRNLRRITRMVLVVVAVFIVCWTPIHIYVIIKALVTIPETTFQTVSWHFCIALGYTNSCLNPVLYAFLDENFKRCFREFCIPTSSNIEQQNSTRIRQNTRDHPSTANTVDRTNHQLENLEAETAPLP
Procedure, shortened: as §2

[4] = target: T4, Human opioid (ORL1) (Homo sapiens, UniProt P41146); test: Radioligand binding, human opioid ORL1 membranes, FlashPlate, [125I]-Nociceptin; conditions: compound at 10 μM, [125I]-Nociceptin
T4 construct: purchased Perkin Elmer Biosignal
T4 sequence (P41146 whole entry): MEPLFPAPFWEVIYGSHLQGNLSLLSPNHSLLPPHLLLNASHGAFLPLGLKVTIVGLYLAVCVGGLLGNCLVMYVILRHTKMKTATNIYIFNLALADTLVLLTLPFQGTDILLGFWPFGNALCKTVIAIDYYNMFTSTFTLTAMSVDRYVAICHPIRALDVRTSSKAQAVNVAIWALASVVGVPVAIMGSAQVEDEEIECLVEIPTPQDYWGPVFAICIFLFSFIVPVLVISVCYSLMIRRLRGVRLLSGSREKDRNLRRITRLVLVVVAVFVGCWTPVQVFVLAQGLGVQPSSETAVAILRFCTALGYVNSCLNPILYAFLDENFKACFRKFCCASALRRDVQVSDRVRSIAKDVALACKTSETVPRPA
Procedure, shortened: as §2

[5] = target: T5, Human neuropeptide Y (NPY-Y1) (Homo sapiens, UniProt P25929); test: Radioligand binding, human neuropeptide Y NPY-Y1 membranes, FlashPlate, [125I]-PYY; conditions: compound at 10 μM; [125I]-PYY
T5 construct: purchased Perkin Elmer Biosignal
T5 sequence (P25929 1-384): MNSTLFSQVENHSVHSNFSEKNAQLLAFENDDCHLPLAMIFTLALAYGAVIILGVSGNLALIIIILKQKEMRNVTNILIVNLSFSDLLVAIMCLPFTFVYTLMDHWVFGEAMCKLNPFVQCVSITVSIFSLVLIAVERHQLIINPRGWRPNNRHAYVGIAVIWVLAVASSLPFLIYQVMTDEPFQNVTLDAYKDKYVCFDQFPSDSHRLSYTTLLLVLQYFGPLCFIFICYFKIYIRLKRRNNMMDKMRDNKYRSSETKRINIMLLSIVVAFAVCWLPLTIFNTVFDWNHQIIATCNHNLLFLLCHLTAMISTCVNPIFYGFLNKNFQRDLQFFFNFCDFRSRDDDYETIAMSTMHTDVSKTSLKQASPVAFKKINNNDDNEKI
Procedure, shortened: as §2

[6] = target: T6, Human melanocortin (MC5) (Homo sapiens, UniProt P33032); test: Radioligand binding, human melanocortin MC5 membranes, FlashPlate, [125I]-NDP-αMSH; conditions: compound at 10 μM; [125I]-NDP-αMSH
T6 construct: purchased Perkin Elmer Biosignal
T6 sequence (P33032 whole entry): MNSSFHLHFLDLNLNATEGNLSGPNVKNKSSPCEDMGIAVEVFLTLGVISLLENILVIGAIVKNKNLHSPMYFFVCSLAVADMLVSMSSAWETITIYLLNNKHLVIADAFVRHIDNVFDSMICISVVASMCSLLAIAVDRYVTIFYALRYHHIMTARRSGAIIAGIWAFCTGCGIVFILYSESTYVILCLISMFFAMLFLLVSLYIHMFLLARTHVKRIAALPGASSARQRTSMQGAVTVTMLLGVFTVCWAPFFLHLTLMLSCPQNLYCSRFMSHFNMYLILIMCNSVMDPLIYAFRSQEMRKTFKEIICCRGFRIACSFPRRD
Procedure, shortened: as §2

[7] = target: T7, Human Melanocortin (MC4) (Homo sapiens, UniProt P32245); test: Radioligand binding, human melanocortin MC4 membranes, FlashPlate, [125I]-NDP-αMSH; conditions: compound at 10 μM, [125I]-NDP-αMSH
T7 construct: purchased Perkin Elmer Biosignal
T7 sequence (P32245 whole entry): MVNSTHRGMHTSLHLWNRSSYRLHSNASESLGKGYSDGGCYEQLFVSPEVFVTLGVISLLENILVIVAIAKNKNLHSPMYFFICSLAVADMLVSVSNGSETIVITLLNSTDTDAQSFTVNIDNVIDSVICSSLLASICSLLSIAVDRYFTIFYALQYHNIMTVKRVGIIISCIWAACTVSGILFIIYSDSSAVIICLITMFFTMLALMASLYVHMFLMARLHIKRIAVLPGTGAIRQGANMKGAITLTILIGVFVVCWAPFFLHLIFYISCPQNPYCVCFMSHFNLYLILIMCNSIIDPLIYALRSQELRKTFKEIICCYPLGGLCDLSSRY
Procedure, shortened: as §2

[8] = target: T8, Human neurokinin (NK1) (Homo sapiens, UniProt P25103); test: Radioligand binding, human neurokinin NK1 membranes, filtration, [125I]-Substance P; conditions: compound at 10 μM, [125I]-Substance P
T8 construct: purchased Perkin Elmer Biosignal
T8 sequence (P25103 whole entry): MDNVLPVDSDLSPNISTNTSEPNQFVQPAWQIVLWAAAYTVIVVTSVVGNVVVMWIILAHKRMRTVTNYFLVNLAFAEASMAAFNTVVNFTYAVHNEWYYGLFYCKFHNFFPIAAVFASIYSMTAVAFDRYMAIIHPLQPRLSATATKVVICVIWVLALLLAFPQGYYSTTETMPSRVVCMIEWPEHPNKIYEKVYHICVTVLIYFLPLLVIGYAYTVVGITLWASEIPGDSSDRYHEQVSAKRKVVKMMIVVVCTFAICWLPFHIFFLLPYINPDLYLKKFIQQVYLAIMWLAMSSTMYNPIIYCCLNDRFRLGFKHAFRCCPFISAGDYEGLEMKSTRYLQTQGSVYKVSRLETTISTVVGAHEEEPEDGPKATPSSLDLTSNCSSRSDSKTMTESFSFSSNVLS
Procedure, shortened: as §1

[9] = target: T9, Mouse urotensin (mUR2) (Mus musculus, UniProt Q8VIH9); test: Radioligand binding, mouse urotensin mUR2 membranes, FlashPlate, [125I]-Urotensin II; conditions: compound at 10 μM; [125I]-Urotensin II
T9 construct: purchased Perkin Elmer Biosignal
T9 sequence (Q8VIH9 1-385): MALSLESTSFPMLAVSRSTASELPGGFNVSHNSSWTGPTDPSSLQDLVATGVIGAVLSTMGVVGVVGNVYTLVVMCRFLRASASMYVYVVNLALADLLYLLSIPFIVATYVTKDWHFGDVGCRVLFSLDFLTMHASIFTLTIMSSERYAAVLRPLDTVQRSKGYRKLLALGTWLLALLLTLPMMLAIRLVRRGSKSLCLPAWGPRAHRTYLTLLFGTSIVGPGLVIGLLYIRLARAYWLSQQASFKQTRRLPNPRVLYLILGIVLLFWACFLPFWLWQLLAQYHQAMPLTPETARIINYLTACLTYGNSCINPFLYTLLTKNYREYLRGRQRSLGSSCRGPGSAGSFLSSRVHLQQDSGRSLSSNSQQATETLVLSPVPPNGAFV
Procedure, shortened: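 Cloned mouse urotensin (mUR2) receptor membranes from Perkin Elmer Biosignal were immobilized in FlashPlate microplates using a proprietary coating. Each well got 19.5 μl buffer, then 0.5 μl of DMSO, reference ligand, or compound. Adding 5 μl of [125I]-Urotensin II, diluted to 5× final concentration in binding buffer, started binding. Plates were sealed with TopSeal-A and incubated 1 hour at room temperature in the dark. Wells were counted for 30 seconds each on a TopCount after a 60-second delay, and percentage inhibition was calculated.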

[10] = target: T10, Human melanin-concentrating hormone (MCH1) (Homo sapiens, UniProt Q99705); test: Radioligand binding, human melanin-concentrating hormone MCH1 membranes, FlashPlate, [125I]-S36057; conditions: compound at 10 μM; [125I]-S36057
T10 construct: purchased Perkin Elmer Biosignal
T10 sequence (Q99705 whole entry): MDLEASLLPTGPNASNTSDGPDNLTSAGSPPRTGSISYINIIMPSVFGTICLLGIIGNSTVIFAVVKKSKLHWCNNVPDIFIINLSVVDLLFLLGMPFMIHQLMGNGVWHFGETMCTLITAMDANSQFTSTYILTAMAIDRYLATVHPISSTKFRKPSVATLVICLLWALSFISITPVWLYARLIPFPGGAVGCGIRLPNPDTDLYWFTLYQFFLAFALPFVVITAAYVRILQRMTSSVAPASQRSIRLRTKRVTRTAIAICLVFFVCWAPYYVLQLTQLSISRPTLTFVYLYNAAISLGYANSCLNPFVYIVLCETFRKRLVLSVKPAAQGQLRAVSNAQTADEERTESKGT
Procedure, shortened: as §2

[11] = target: T11, Human Melanocortin (MC3) (Homo sapiens, UniProt P41968); test: Radioligand binding, human melanocortin MC3 membranes, FlashPlate, [125I]-NDP-αMSH; conditions: compound at 10 μM; [125I]-NDP-αMSH
T11 construct: purchased Perkin Elmer Biosignal
T11 sequence (P41968 whole entry): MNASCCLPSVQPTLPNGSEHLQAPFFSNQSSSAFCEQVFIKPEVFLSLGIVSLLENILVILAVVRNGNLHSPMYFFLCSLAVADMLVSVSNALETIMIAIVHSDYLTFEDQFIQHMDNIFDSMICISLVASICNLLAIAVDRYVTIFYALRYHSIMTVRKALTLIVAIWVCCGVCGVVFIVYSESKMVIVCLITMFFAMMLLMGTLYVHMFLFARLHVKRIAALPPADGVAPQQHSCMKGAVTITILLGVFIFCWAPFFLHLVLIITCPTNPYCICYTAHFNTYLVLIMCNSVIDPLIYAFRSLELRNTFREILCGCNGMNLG
Procedure, shortened: as §2

T1 sequence (P41145 whole entry): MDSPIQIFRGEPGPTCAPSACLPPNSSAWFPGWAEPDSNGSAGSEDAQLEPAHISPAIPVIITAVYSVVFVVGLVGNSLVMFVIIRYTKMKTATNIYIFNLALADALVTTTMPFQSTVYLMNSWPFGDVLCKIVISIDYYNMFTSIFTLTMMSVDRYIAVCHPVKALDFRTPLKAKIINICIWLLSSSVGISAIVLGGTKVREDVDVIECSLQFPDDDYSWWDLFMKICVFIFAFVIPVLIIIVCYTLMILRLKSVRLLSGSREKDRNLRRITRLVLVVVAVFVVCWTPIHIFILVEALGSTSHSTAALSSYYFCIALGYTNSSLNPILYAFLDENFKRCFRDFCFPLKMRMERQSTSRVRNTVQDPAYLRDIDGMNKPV

Row | SMILES | A2: inhibition of radioligand binding, human κ-opioid (KOP) [1] | A1: inhibition of radioligand binding, human δ-opioid (DOP) [2] | A7: inhibition of radioligand binding, human μ-opioid (MOP) [3] | A10: inhibition of radioligand binding, human opioid (ORL1) [4] | A9: inhibition of radioligand binding, human neuropeptide Y (NPY-Y1) [5] | A5: inhibition of radioligand binding, human melanocortin (MC5) [6] | A4: inhibition of radioligand binding, human melanocortin (MC4) [7] | A8: inhibition of radioligand binding, human neurokinin (NK1) [8] | A11: inhibition of radioligand binding, mouse urotensin (mUR2) [9] | A6: inhibition of radioligand binding, human melanin-concentrating hormone (MCH1) [10] | A3: inhibition of radioligand binding, human melanocortin (MC3) [11] | A7: inhibition of radioligand binding, human μ-opioid (MOP) ([3]; 10 µM) | A10: inhibition of radioligand binding, human opioid (ORL1) ([4]; 10 µM) | A4: inhibition of radioligand binding, human melanocortin (MC4) ([7]; 10 µM) | A8: inhibition of radioligand binding, human neurokinin (NK1) ([8]; 10 µM)
1 | NCCC(=O)NC1C(OCc2ccc(Cl)cc2)OC(COCc2ccccc2)C(O)C1OCc1ccccc1 (single isomer, unassigned) [compound 485] | − (“−” indicates less than 50% inhibition at 10 μM) | − (“−” indicates less than 50% inhibition at 10 μM) | − (“−” indicates less than 50% inhibition at 10 μM) | − (“−” indicates less than 50% inhibition at 10 μM) | − (“−” indicates less than 50% inhibition at 10 μM) | − (“−” indicates less than 50% inhibition at 10 μM) | − (“−” indicates less than 50% inhibition at 10 μM) | + (“+” indicates greater than 50% inhibition at 10 μM) | − (“−” indicates less than 50% inhibition at 10 μM) | − (“−” indicates less than 50% inhibition at 10 μM) | − (“−” indicates less than 50% inhibition at 10 μM) | – | – | – | –
2 | NCCC(=O)NC1C(OCc2ccc(Cl)cc2)OC(COCc2ccccc2)C(O)C1OCc1ccccc1 (single isomer, unassigned) [compound 486] | − (“−” indicates less than 50% inhibition at 10 μM) | − (“−” indicates less than 50% inhibition at 10 μM) | − (“−” indicates less than 50% inhibition at 10 μM) | − (“−” indicates less than 50% inhibition at 10 μM) | − (“−” indicates less than 50% inhibition at 10 μM) | − (“−” indicates less than 50% inhibition at 10 μM) | − (“−” indicates less than 50% inhibition at 10 μM) | + (“+” indicates greater than 50% inhibition at 10 μM) | − (“−” indicates less than 50% inhibition at 10 μM) | − (“−” indicates less than 50% inhibition at 10 μM) | − (“−” indicates less than 50% inhibition at 10 μM) | – | – | – | –
3 | NCCC(=O)NC1C(OCc2ccc(Cl)cc2)OC(COCc2ccc(Cl)cc2)C(O)C1OCc1ccccc1 (single isomer, unassigned) [compound 487] | − (“−” indicates less than 50% inhibition at 10 μM) | − (“−” indicates less than 50% inhibition at 10 μM) | – | – | − (“−” indicates less than 50% inhibition at 10 μM) | + (“+” indicates greater than 50% inhibition at 10 μM) | – | – | − (“−” indicates less than 50% inhibition at 10 μM) | − (“−” indicates less than 50% inhibition at 10 μM) | − (“−” indicates less than 50% inhibition at 10 μM) | + (“+” indicates greater than 50% inhibition at 10 μM) | − (“−” indicates less than 50% inhibition at 10 μM) | − (“−” indicates less than 50% inhibition at 10 μM) | − (“−” indicates less than 50% inhibition at 10 μM)
